Columns and labels:
[1] = biological target: α7 subtype of nAChR (Homo sapiens, UniProt P36544); settings: cited from earlier work
[2] = system: lung ILC2s; experiment: Flow cytometry of proliferation, transcription factor and signalling markers in lung ILC2s; assay type: cell-based, mouse
From the text: FIGS. 5A-5F: Cholinergic signal attenuates ILC2 proliferation and GATA3 expression. (FIG. 5A) Mean fluorescence intensity of Ki67 and percentage of Ki67+ cells in isolated lung ILC2s, stimulated with IL-33 in the absence and presence of α7nAChR. (FIG. 5B) Mean fluorescence intensity of GATA3 in isolated lung ILC2s, stimulated with IL-33 in the absence and presence of α7nAChR. One representative experiment of two is shown (n=5; Student's t test *, p<0.05; **, p<0.01; ***p<0.001). […] FACS-purified ILC2s from WT mice challenged with rm-IL-33 with or without α7nAChR agonist as described in FIG. 3A were quantified by NanoString nCounter technology. Data range from −1 to +1 for the most reduced and most increased gene expression, respectively. (FIG. 5D) Expression of NF-κB p65 in isolated lung ILC2s from mice challenged with IL-33 with (dotted line) or without (thick line) α7nAChR agonist. The level of isotype-matched stain control is shown as a gray-filled histogram. (FIG. 5E) Expression of phosphorylated IKKα/β (Ser176/180) in isolated lung ILC2s stimulated with IL-33, with (dotted line) or without (thick line) α7nAChR agonist for 24 hours. The level of isotype-matched stain control is shown as a gray-filled histogram. (FIG. 5F) Mean fluorescence intensity of phosphorylated IKKα/β with or without α7nAChR agonist.
FIGS. 9A-9C: Effect of α7nAChR agonist on some marker expressions by ILC2s. A cohort of BALB/cByJ mice were intranasally challenged with rm-IL-33 (0.5 μg) with or without α7nAChR agonist (125 μg) for three consecutive days. Histogram and MFI of CD25 (FIG. 9A), CD127 (FIG. 9B) and ST2 (FIG. 9C) in isolated lung ILC2s. Data are representative of at least two independent experiments and are presented as means±SEM (n=4; Student's t test *, p<0.05).
Biotinylated anti-mouse lineage (CD3e (145-2C11), CD45R (RA3-3B2), Gr-1 (RB6-8C5), CD11c (N418), CD11b (M1/70), Ter119 (TER-119), NK1.1 (PK136), TCR-β (H57-597), TCR-γδ (GL3), and FcεRIα (MAR-1), Streptavidin-FITC, FITC anti-mouse CD3 (145-2C11), BV510 anti-mouse CD4 (RM4-5), APC-Cy7 anti-mouse CD25 (PC61), PE anti-mouse CD25 (PC61), BV421 anti-mouse CD25 (PC61), BV510 anti-mouse CD90.2 (53-2.1), APC anti-mouse CD127 (A7R34), PE-Cy7 anti-mouse CD127 (A7R34), FITC anti-mouse CD45 (30F-11), PE/Cy7 anti-mouse CD45 (30-F11), PE anti-mouse IL-5 (TRFK5), BV421 anti-mouse GATA3 (16E10A23), 7-AAD Viability staining solution, purchased from BioLegend (San Diego, Calif.). PE anti-mouse ST2 (IL-33R, RMST2-2), PerCP-eFluor710 anti-Mouse ST2 (RMST2-2), Streptavidin APC-eFluor780, Alexa Fluor647 labeled anti-IL-4 (clone 11B11), eFluor 450 anti-mouse CD45 (30F-11), eFluor450 anti-CD44 (clone IM7), eFluor-660 anti-mouse Ki-67 (SollA15), PE/Cy7 anti-mouse IL-13 (eBio13A), anti-mouse BCL-2 (10C4), were purchased from eBioscience. Alexa Fluor 488 anti-mouse p65-NF-κB (532301) was purchased from R&D Systems (dilution 1:50). Alexa Fluor 647 conjugated α-bungarotoxin (Invitrogen, San Diego, Calif.). PE anti-mouse Phospho-IKKα/β (Ser 176/180) (16A6) was purchased from Cell Signaling Technology (dilution 1:50). PE anti-rat α7nAChR (319) was purchased from Santa Cruz Biotechnology (dilution 1:50). This antibody has been used to identify this receptor previously in several studies^69. Lineage marker antibodies were used at the dilution of 1:400, unless mentioned otherwise other antibodies were used at the dilution of 1:200.
Intracellular staining was performed using BD Cytofix/Cytoperm kit (BD Bioscience, San Jose, Calif.) according to the manufacturer's instructions. For analysis of GATA3 and Ki-67 expression, freshly isolated cells were fixed and permeabilized using Fixation/Permeabilization buffer kit (eBioscience) according to the manufacturer's instructions and as previously described^70.

Sequence of α7 subtype of nAChR (P36544 23-502): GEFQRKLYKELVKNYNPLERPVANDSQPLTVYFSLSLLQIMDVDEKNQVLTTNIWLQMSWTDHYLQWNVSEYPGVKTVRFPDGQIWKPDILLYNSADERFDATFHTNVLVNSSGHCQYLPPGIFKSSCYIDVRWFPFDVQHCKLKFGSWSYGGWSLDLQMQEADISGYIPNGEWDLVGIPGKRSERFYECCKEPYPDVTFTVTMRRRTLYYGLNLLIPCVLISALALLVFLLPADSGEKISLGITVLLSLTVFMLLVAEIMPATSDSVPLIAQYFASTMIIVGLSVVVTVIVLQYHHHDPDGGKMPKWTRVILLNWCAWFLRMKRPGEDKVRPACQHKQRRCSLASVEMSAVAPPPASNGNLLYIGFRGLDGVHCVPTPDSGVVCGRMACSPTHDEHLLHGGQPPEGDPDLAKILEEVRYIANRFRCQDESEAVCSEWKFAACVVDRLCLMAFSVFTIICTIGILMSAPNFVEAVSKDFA

In the case of `COc1ccc(/C=C2\CCCN=C2c2cccnc2)c(OC)c1` [GTS-21, 3-[(3E)-3-[(2,4-dimethoxyphenyl)methylidene]-5,6-dihydro-4H-pyridin-2-yl]pyridine], the “activation of nAChR subtypes” value [1] is given as “activates only the α7 subtype to a significant extent”, the “expression of anti-apoptotic factor Bcl-2 on ILC2s” value ([2]; in vivo data) is given as “unaffected” and the “GATA-3 expression in ILC2s” value ([2]; isolated lung ILC2s, IL-33) is given as “significantly inhibits”. The “proliferation rate of pulmonary ILC2s (Ki-67 levels)” value ([2]; isolated lung ILC2s, IL-33) was “significantly decreased”, the “NF-κB p65 expression in ILC2s” value ([2]; lung ILC2s from mice challenged with IL-33) was “reduced” and the “phosphorylated IKKα/β (Ser176/180) expression in ILC2s” value ([2]; lung ILC2s stimulated with IL-33, 24 hours) was “reduced”.

— patent publication US20190247376A1, “NICOTINIC ACETYLCHOLINE RECEPTOR AGONIST ATTENUATES ILC2-DEPENDENT AIRWAY HYPERREACTIVITY” (University of Southern California, priority 2016, published 2019)
